Laboratory results reported in patent US20220119866A1 (priority 2019, published 2022).
Read-outs that look alike come from different tables or passages of the source.

Legend:
[1] = test system: Clostridium difficile hypervirulent ribotype 027 (RT027) strains; experiment: drug sensitivity test, resistance rate of 269 RT027 strains; format: cell-based; details: for Resistance rate to Category 1 (56 strains) / Resistance rate to Category 2 (23 strains) / Resistance rate to Category 3 (190 strains): 269 RT027 strains; for Resistance rate to Category 2 (23 strains): Category 2 (sensitive branch); for Average resistance rate: all 269 RT027 strains
[2] = test system: Clostridium difficile clade2 strains; format: cell-based; details: for Resistance rate to Category 1 (70 strains) / Resistance rate to Category 2 (96 strains) / Resistance rate to Category 3 (217 strains): 383 clade2 strains; for Average resistance rate: all 383 clade2 strains

Row | Compound | Resistance rate to Category 1 (56 strains) [1] [%] | Resistance rate to Category 2 (23 strains) [1] [%] | Resistance rate to Category 2 (23 strains) ([1]; listed as metronidazole) [%] | Resistance rate to Category 3 (190 strains) [1] [%] | Average resistance rate [1] [%] | Resistance rate to Category 1 (70 strains) [2] [%] | Resistance rate to Category 2 (96 strains) [2] [%] | Resistance rate to Category 2 (96 strains) ([2]; listed as metronidazole) [%] | Resistance rate to Category 3 (217 strains) [2] [%] | Average resistance rate [2] [%] | Resistance rate to Category 2 (23 strains) ([1]; listed as vancomycin) [%] | Resistance rate to Category 3 (190 strains) ([1]; listed as vancomycin) [%] | Resistance rate to Category 2 (96 strains) ([2]; listed as vancomycin) [%] | Resistance rate to Category 3 (217 strains) ([2]; listed as vancomycin) [%]
1 | Cc1ncc([N+](=O)[O-])n1CCO [Metronidazole, metronidazole] | 51.79 | 0.0 | 0.0 | 47.37 | 44.24 | 52.86 | 3.13 | 3.03 | 48.39 | 37.86 |  |  |  | 
2 | CN[C@H](CC(C)C)C(=O)N[C@H]1C(=O)N[C@@H](CC(N)=O)C(=O)N[C@H]2C(=O)N[C@H]3C(=O)N[C@H](C(=O)N[C@H](C(=O)O)c4cc(O)cc(O)c4-c4cc3ccc4O)[C@H](O)c3ccc(c(Cl)c3)Oc3cc2cc(c3O[C@@H]2O[C@H](CO)[C@@H](O)[C@H](O)[C@H]2O[C@H]2C[C@](C)(N)[C@H](O)[C@H](C)O2)Oc2ccc(cc2Cl)[C@H]1O [Vancomycin, vancomycin] | 94.64 | 21.74 |  | 21.05 | 36.43 | 92.86 | 30.21 |  | 22.58 | 37.34 | 21.74 | 21.05 | 30.21 | 22.58
